In US12065436B2, “Cardiac sarcomere inhibitors” (Cytokinetics, Inc., priority 2018, dated 2024):
Like-named read-outs stand apart in the source and are kept apart here.

Legend:
[1] = system: adult cardiac ventricular rat myocytes; assay: Adult ventricular myocyte contractility (fractional shortening); format: cell-based; conditions: 5 min, 5 μM compound, 5 min perfusion, read-out: % FS (% reduction from baseline) ± SEM
Experimental: Adult male Sprague-Dawley rats were anesthetized and the hearts were quickly excised, rinsed and the ascending aorta was cannulated. Continuous retrograde perfusion was initiated on the hearts at a perfusion pressure of 60 cm H2O. Hearts were first perfused with a nominally Ca^2+-free modified Krebs solution of the following composition: 113 mM NaCl, 4.7 mM KCl, 0.6 mM KH2PO4, 0.6 mM Na2HPO4, 1.2 mM MgSO4, 12 mM NaHCO3, 10 mM KHCO3, 30 mM taurine, 5.5 mM glucose and 10 mM Hepes (all Sigma). This medium is not recirculated and is continually aerated with a 95% O2/5% CO2 mixture. After approximately 3 minutes the heart was perfused with a modified Krebs buffer supplemented with collagenase (Worthington) and 12.5 μM final calcium concentration. The heart was removed from the cannulae after the heart appeared blanched and soft in appearance. The atria and vessels were removed and the ventricles were gently dissected into smaller pieces with forceps. The tissue was homogenized by repeated pipette trituration and the collagenase reaction was stopped by 10% bovine calf serum (BCS), sedimentation and resuspension in perfusion buffer containing 5% BCS and 12.5 uM CaCl2). Myocytes were made calcium tolerant by stepwise addition of a CaCl2) solution to a final concentration of 1.2 mM. Cells were then washed and resuspended in Tyrode's buffer (137 mM NaCl, 3.7 mM KCl, 0.5 mM MgCl, 11 mM glucose, 4 mM Hepes, and 1.2 mM CaCl2), pH 7.4). Cells were kept for 60 min at 37° C. prior to initiating experiments and used within 5 hrs of isolation. […] Additionally, only cells whose basal contractility was between 3 and 8% were used in subsequent experiments with compounds.
Aliquots of myocytes in Tyrode's buffer were placed in perfusion chambers (series 20 RC-27NE; Warner Instruments) complete with heating platforms. Myocytes were allowed to attach, the chambers were heated to 37° C., and the cells were perfused with 37° C. Tyrode's buffer. Myocytes were field stimulated at 1 Hz in with platinum electrodes (20% above threshold). Only cells that had clear striations and were quiescent prior to pacing were used for contractility experiments. To determine basal contractility, myocytes were imaged through a 40× objective. […] Once cell contraction was stable over time, test compounds (0.01-15 μM) were perfused into the chambers on the myocytes for 5 minutes. Contractility of the myocytes and contraction and relaxation velocities were then recorded using edge detection.
Five or more individual myocytes were tested per compound from two or more different myocyte preparations. For each cell, twenty or more contractility transients at basal (defined as 1 min prior to compound infusion) and after compound addition (defined as 5 min after starting compound perfusion), were averaged and compared. These average transients were analyzed using the IonWizard software (IonOptix) to determine changes in diastolic length and fractional shortening. Fractional shortening was calculated as: ((resting length−length at peak contraction) divided by the resting length). The percent change in fractional shortening from baseline was calculated as: ((post-dose fractional shortening/basal fractional shortening)*100). The percent reduction in fractional shortening from baseline was calculated as: (100−percent change in fractional shortening from baseline). Maximum contraction and relaxation velocities (um/sec) was also determined. Results from individual cells are averaged and the SEM calculated.

[2] = system: rat cardiac contractility (left ventricle fractional shortening); assay: Echocardiography of acute effect on rat cardiac contractility, continuous IV infusion; format: in vivo, Sprague Dawley rats; conditions: Rattus norvegicus, plasma concentration at which fractional shortening is 50% of pre-dose baseline, estimated, read-out: IC50 (Mean ± S.D.)
Experimental: Assessment of in vivo cardiac function by echocardiography was performed in male Sprague Dawley rats under isoflurane (1-3%) anesthesia. 2-D M-mode images of the left ventricle were acquired in the parasternal long-axis view before, during, and after administration of compounds by continuous IV infusion or oral gavage. In vivo fractional shortening was determined by M-mode image analysis with the following calculation: ((End diastolic diameter−end systolic diameter)/end diastolic diameter×100). For continuous IV infusion experiments, three pre-dose baseline M-mode images were taken at 1 minute intervals prior to infusion of compound. Compounds were formulated in 50% Propylene Glycol (PG): 16% Captisol: 10% dimethylacetamide (DMA) and delivered via a jugular vein catheter at the rate of 1 mL/kg/h. During infusion, M-mode images were taken at 5 minute intervals. The infusion stopped when fractional shortening reached up to a 60% reduction from baseline. Blood samples were taken to determine the plasma concentration of the compounds. Data was reported as an estimated IC50 value, which is the concentration at which fractional shortening is 50% of the pre-dose baseline contractility.

[3] = system: rat cardiac contractility (left ventricle fractional shortening); assay: Echocardiography of acute effect on rat cardiac contractility, oral gavage; format: in vivo, Sprague Dawley rats; conditions: for inhibition in vivo at 6 mg/kg: oral gavage
In short: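 Male Sprague Dawley rats under isoflurane (1-3%) anesthesia had three pre-dose baseline M-mode images of the left ventricle (parasternal long-axis view) taken at 1 minute intervals. Compound in 0.5% HPMC 2910: 0.1% Tween 80 suspension was then given as a single oral gavage dose (5 mL/kg). Fractional shortening was measured at chosen time points over 24 hours, with plasma concentrations sampled concurrently.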

[4] = biological target: bovine cardiac myofibrils (full-length cardiac myosin ATPase in the native sarcomere) (Bos taurus (Bovine), UniProt Q9BE39); assay: Skinned bovine cardiac myofibril ATPase assay (PK/LDH-coupled); format: biochemical; conditions: Ca2+ activating to 75% of maximal rate
In short: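 Triton-skinned bovine left-ventricle myofibrils (1 mg/mL) in PM 12 buffer (12 mM PIPES, 2 mM MgCl2, pH 6.8) with 50 μM ATP, 0.6 mM EGTA and CaCl2 set for 50% or 75% activation. Steady-state ATPase inhibition followed by PK/LDH-coupled NADH oxidation at 340 nm.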

bovine cardiac myofibrils (full-length cardiac myosin ATPase in the native sarcomere), sequence (Q9BE39 whole entry): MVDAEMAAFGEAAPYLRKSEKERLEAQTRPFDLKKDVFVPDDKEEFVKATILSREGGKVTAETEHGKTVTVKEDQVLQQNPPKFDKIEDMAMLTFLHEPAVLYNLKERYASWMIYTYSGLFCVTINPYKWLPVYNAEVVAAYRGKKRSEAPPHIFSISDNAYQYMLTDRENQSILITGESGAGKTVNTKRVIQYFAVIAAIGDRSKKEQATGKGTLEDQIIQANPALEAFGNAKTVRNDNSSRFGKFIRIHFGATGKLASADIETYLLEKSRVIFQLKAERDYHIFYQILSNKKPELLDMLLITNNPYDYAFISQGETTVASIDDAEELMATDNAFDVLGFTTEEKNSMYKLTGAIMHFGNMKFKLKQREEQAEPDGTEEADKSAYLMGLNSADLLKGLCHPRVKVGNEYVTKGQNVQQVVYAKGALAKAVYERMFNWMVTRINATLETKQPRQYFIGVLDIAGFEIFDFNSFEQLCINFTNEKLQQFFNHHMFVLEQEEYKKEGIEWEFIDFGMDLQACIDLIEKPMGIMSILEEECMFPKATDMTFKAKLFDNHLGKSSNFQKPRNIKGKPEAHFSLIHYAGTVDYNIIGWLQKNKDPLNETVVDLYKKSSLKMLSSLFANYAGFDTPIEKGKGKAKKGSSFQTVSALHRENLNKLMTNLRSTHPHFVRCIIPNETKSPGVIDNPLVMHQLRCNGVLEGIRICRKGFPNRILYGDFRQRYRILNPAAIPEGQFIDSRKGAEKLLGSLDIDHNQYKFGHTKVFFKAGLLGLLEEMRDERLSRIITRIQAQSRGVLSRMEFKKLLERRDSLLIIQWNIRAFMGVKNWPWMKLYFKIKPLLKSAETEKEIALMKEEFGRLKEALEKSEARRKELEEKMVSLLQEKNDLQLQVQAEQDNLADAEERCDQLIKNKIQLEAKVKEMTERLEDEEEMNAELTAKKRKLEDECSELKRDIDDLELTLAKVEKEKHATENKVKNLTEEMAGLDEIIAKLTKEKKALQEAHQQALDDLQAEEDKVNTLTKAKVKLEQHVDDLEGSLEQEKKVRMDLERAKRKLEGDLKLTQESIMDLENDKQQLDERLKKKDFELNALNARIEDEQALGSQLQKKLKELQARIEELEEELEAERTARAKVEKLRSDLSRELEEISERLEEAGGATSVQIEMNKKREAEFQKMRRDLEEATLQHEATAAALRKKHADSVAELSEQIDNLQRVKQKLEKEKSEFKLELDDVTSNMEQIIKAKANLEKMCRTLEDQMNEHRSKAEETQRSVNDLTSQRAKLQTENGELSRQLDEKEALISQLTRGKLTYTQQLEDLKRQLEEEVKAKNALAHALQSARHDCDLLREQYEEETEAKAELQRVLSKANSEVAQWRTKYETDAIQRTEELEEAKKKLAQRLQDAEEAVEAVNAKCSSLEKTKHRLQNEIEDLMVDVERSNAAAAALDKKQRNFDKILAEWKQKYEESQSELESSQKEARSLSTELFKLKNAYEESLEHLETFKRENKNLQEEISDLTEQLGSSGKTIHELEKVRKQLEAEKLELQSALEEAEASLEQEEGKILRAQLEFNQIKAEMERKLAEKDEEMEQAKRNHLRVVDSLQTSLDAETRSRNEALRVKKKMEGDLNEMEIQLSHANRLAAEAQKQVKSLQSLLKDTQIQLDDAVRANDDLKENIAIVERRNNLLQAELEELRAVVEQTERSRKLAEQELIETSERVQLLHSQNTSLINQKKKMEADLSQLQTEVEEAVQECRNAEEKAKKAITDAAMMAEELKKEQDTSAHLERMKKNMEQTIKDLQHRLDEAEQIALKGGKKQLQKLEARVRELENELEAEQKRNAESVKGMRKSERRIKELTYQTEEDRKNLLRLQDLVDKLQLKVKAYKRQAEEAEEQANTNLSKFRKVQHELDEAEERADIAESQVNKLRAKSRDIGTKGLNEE
bovine cardiac myofibrils (full-length cardiac myosin ATPase in the native sarcomere), sequence (P85100 whole entry partner): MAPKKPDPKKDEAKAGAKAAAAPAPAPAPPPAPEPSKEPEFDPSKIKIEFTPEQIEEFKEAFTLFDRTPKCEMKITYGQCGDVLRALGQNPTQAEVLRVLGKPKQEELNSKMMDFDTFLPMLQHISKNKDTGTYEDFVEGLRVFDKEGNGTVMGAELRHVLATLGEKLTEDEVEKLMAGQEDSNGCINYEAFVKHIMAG
bovine cardiac myofibrils (full-length cardiac myosin ATPase in the native sarcomere), sequence (Q3SZE5 whole entry partner): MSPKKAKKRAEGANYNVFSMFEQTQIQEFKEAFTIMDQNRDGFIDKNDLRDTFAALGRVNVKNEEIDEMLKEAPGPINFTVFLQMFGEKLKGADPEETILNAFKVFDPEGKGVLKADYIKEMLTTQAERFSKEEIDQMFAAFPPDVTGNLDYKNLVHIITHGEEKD

Cc1ncc(C(=O)N[C@@H]2CCc3cc(-c4noc(C(F)F)n4)ccc32)o1 [Compound 100, (R)—N-(5-(5-(difluoromethyl)-1,2,4-oxadiazol-3-yl)-2,3-dihydro-1H-inden-1-yl)-2-methyloxazole-5-carboxamide]
inhibition at 5 µM [1]: 54.7%
IC50 [2]: 8.1 ± 0.26 µM
inhibition in vivo at 6 mg/kg ([3]; Rattus norvegicus, 1 h, 1-2 h post dose, read-out: FS (% reduction from baseline) at 1-2 h post dose (Mean ± S.D.)): 60 ± 4%
IC50 ([3]; Rattus norvegicus, oral dosing, plasma concentration at which fractional shortening is 50% of pre-dose baseline, estimated): 9.1 µM
inhibition in vivo at 6 mg/kg ([3]; Rattus norvegicus, 4 h post dose, read-out: FS (% reduction from baseline) at 4 h post dose (Mean ± S.D.)): 40 ± 3%
IC10 ([3]; oral dosing, plasma concentration at which, estimated): 2.3 µM
CDMF75 IC15 ([4]; concentration giving 15% inhibition): 0.7 µM
IC50 ([4]; read-out: CDMF75 IC50): 3 µM
